Data taken from PubChem BioAssay (NCI).
Where “and” joins values, the source holds several entries; their conditions need not be identical. Identical values can stand only once.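 Results reflect a 48-hour exposure of cells in 96-well plates to compound at five concentrations. GI50: concentration for 50% inhibition of growth. TGI is the concentration that stops growth completely.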

Assays:
Assay in all cases: growth of human tumour cells (NCI), 48 h
DMS 114 small cell lung = test system: DMS 114 small cell lung
SNB-78 CNS = test system: SNB-78 CNS
LXFL 529 NSCLC = test system: LXFL 529 NSCLC
XF 498 CNS = test system: XF 498 CNS
M19-MEL melanoma = test system: M19-MEL melanoma
DMS 273 small cell lung = test system: DMS 273 small cell lung
HOP-18 NSCLC = test system: HOP-18 NSCLC
RXF-631 renal = test system: RXF-631 renal
MDA-N = test system: MDA-N

Row | SMILES | TGI (DMS 114 small cell lung) | TGI (SNB-78 CNS) | TGI (LXFL 529 NSCLC) | TGI (XF 498 CNS) | TGI (M19-MEL melanoma) | TGI (DMS 273 small cell lung) | TGI (HOP-18 NSCLC) | TGI (RXF-631 renal) | TGI (MDA-N) | further results
1 | O=C1CCSC2=C1SCc1sccc12 | > 100 µM | > 100 µM | > 100 µM | > 100 µM | > 100 µM |  |  |  |  | 
2 | Nc1cc(=O)n(-c2ccccc2)c(=S)n1-c1ccccc1 | > 100 µM | > 100 µM | > 100 µM | > 100 µM | > 100 µM | > 100 µM |  |  |  | 
3 | COc1ccccc1NC(=O)c1nc2ccc([N+](=O)[O-])cc2nc1C | > 100 µM |  | > 100 µM | 73.8 µM | > 100 µM | > 100 µM | 39.9 µM |  |  | 
4 | N/N=c1\c2ccccc2c2cc3c(cc12)/c(=N/N)c1ccccc13 | > 100 µM | > 100 µM | > 100 µM |  | > 100 µM | > 100 µM | > 100 µM | > 100 µM |  | 
5 | Cc1c(O)c2c(c(O)c1Br)C(=O)C=CC2=O |  |  |  |  |  |  |  |  | 0.615 µM and 2.08 µM | GI50 (MDA-N): 0.63 µM
6 | NCC1OC(OC2C(CO)OC(OC3C(O)C(N)CC(N)C3OC3OC(CO)C(O)CC3N)C2O)C(N)C(O)C1OC1OC(CO)C(O)C(O)C1O (stereo not drawn) |  |  |  |  |  |  |  |  | > 50 µg/mL | GI50 (MDA-N): > 50 µg/mL
7 | OCc1c[te]c(-c2ccccc2)c1 | 91.7 µM | > 100 µM | > 100 µM |  | > 100 µM | > 100 µM |  | > 100 µM |  | 
8 | Cc1ccc(S(=O)OCC23CC4CC(CC(C4)C2)C3)cc1 (stereo not drawn) |  | > 100 µM | > 100 µM | > 100 µM | > 100 µM | > 100 µM | > 100 µM |  |  | 
9 | CC(=O)Nc1ccc(COC(O)CN2CCCCC2)cc1[N+](=O)[O-] (stereo not drawn) |  |  |  |  |  |  |  |  | > 100 µM | 
10 | CC(C)(C)c1c2c(c(C(C)(C)C)c3c1OCN(Cc1ccccc1)C3)OCN(Cc1ccccc1)C2 |  |  |  |  |  |  |  |  | 30.3 µM | 
11 | O=C(O)c1ccc(C(=O)O)c(C(=O)Nc2ccc3c(c2)C(=O)c2ccccc2-3)c1 |  |  |  |  |  |  |  |  | > 100 µM | 
12 | CC(=O)NC1C(OCc2ccccc2)OC(COC(=O)CCCCCCCCCCNc2ccc([N+](=O)[O-])c3[nH]c4ccccc4c(=O)c23)C(O)C1OC(C)C(=O)NC(C)C(=O)NC(CCC(N)=O)C(=O)OCc1ccccc1 (stereo not drawn) | > 100 µM | > 100 µM | > 100 µM | > 100 µM | > 100 µM | > 100 µM | > 100 µM |  |  | 
13 | COC(=O)C(Cc1nc2ccccc2nc1C)/C(=N\NC(N)=O)C(=O)Nc1cccc([N+](=O)[O-])c1 (stereo not drawn) | > 100 µM | > 100 µM | > 100 µM | > 100 µM | > 100 µM |  | > 100 µM | > 100 µM |  | 
14 | O=C(COC(=O)c1cccc2c(=O)c3ccccc3[nH]c12)Nc1ccc(C(=O)O)cc1 | > 100 µM | > 100 µM |  | 95.6 µM | > 100 µM |  | > 100 µM | > 100 µM |  | 
15 | COc1ccc(C(=O)C(c2ccc(OCc3ccccc3)cc2)c2ccc(OCc3ccccc3)cc2)cc1 | > 100 µM | > 100 µM |  | > 100 µM | > 100 µM | > 100 µM |  | > 100 µM |  | 
16 | O=C(/C(=C\c1ccc(Cl)cc1)c1ccccc1)c1ccccc1 | > 100 µM | > 100 µM | > 100 µM | 95.5 µM |  |  | > 100 µM |  |  | 
17 | COc1cc2c(cc1OC)C1Cc3cc(OC)c(OC)cc3C(C2)N1C |  | > 100 µM | > 100 µM | > 100 µM |  |  |  |  | > 75 µM | 
18 | CC(C)(C)CC(N)=O |  |  |  |  |  |  |  |  | > 100 µM | 
19 | c1ccc2c(c1)N=C(c1cccc3ccccc13)CC(c1ccc3c(c1)OCO3)S2 (stereo not drawn) |  | > 100 µM | > 100 µM | > 100 µM | > 100 µM | > 100 µM | > 100 µM | > 100 µM |  | 

Row | SMILES | TGI (DMS 114 small cell lung) | TGI (SNB-78 CNS) | TGI (LXFL 529 NSCLC) | TGI (XF 498 CNS) | TGI (M19-MEL melanoma) | TGI (DMS 273 small cell lung) | TGI (HOP-18 NSCLC) | TGI (RXF-631 renal) | TGI (MDA-N) | further results
20 | C=C(C(=C)P(=S)(c1ccccc1)c1ccccc1)P(=S)(c1ccccc1)c1ccccc1 | > 100 µM | > 100 µM | > 100 µM | > 100 µM | > 100 µM | > 100 µM | > 100 µM |  |  | 
21 | NCOC(=O)Cc1ccc(Br)cc1 |  |  |  |  |  |  |  |  | > 100 µM | 
22 | COC(=O)C1=C(C(=O)OC)C2(C)Nc3ccccc3C2=C(c2ccccc2)C1 (stereo not drawn) | 44.4 µM | 46.9 µM | 32.1 µM | 27 µM | 46 µM | 43.7 µM |  |  |  | 
23 | CC1OC(OC2C(OC3CCC4(C)C(CCC5(C)C4CC=C4C6CC(C)(C)CCC6(C(=O)O)CCC45C)C3(C)CO)OCC(O)C2O)C(O)C(O)C1O (stereo not drawn) |  |  |  |  |  |  |  |  | 39.9 µM | 
24 | CC#CC1C2CCCC1(CSc1ccccc1)NC(=O)O2 (stereo not drawn) | > 100 µM | > 100 µM | > 100 µM | > 100 µM | > 100 µM | > 100 µM | > 100 µM | > 100 µM |  | 
25 | COc1ccc(C2C(C)C(=O)C(C)C(c3ccc(OC)cc3)N2N=O)cc1 (stereo not drawn) | > 1000 µM | > 78.2 µM and 750 µM and > 902 µM | > 1000 µM | 69.7 µM and 160 µM and > 460 µM | > 1000 µM | 750 µM and > 1000 µM | > 1000 µM | 750 µM and 281 µM | 381 µM | GI50 (DMS 114 small cell lung): > 1000 µM; GI50 (SNB-78 CNS): > 46.2 µM and 96.1 µM; GI50 (LXFL 529 NSCLC): > 1000 µM; GI50 (DMS 273 small cell lung): 609 µM; GI50 (XF 498 CNS): 27 µM and 39.1 µM; GI50 (HOP-18 NSCLC): > 1000 µM; GI50 (M19-MEL melanoma): > 1000 µM; GI50 (RXF-631 renal): 270 µM
26 | CC(C)NC(=O)CCN(C(=O)O)S(=O)(=O)c1ccc(NC(=O)c2ccccc2)cc1 | > 54.3 µM | > 100 µM | > 100 µM | > 100 µM | > 89.2 µM | > 56.7 µM | > 100 µM | > 100 µM |  | 
27 | CC(=O)[CH-]C(=O)c1ccccc1.CC(=O)[CH-]C(=O)c1ccccc1.C[C@]12CCC(=O)C=C1CC[C@@H]1C2CC[C@@]2(C)C1CC[C@@H]2[O-].C[C@]12CCC(=O)C=C1CC[C@@H]1C2CC[C@@]2(C)C1CC[C@@H]2[O-].Cl.[Ti+4] (stereo partly drawn) |  |  | 87.3 µM |  | 96.9 µM | 69.5 µM | 91.4 µM |  |  | GI50 (LXFL 529 NSCLC): 24.3 µM; GI50 (DMS 273 small cell lung): 21.2 µM; GI50 (HOP-18 NSCLC): 28.6 µM; GI50 (M19-MEL melanoma): 23.7 µM
28 | CCNC(=O)O/N=C1\CCC2[C@@H]3CC=C4C[C@@H](OC5CCCCO5)CC[C@]4(C)C3CC[C@]12C (stereo partly drawn) |  | 6.42 µM | 2.43 µM |  | 3.6 µM |  | 4.28 µM | 22.4 µM |  | 
29 | OCCN1CCN2C=C(C3CCCC4N(CCO)CCN34)CCC21 (stereo not drawn) | 72.5 µM | > 100 µM | > 100 µM | > 100 µM | > 100 µM | > 100 µM | > 100 µM |  |  | 
30 | Cc1ccccc1-n1c2nc(=O)n(C)c(=O)c-2nc2ccccc21 | 18.3 µM | 43.1 µM | 26.3 µM | 31.3 µM | 3.84 µM | 26.7 µM | 24.2 µM | 36.3 µM |  | 
31 | Cc1ccc(NC(=O)/C(Cl)=C(/Cl)C(=O)O)cc1 | 34.2 µM | 53.4 µM | 26.6 µM |  | 29.5 µM | 41.7 µM | 34.7 µM | 49.8 µM |  | 
32 | CN1CCN(C)C12C=CC=CC21CC1 | > 100 µM | > 100 µM |  | > 100 µM | > 100 µM | > 100 µM | > 100 µM | > 100 µM |  | 
33 | Cc1ccc2c(c1)S(=O)(=O)c1ccc3ccccc3c1N2 |  |  |  |  |  |  |  |  | > 100 µM | 
34 | Clc1ccc(-c2c(C3=NCCCN3)nnn2-c2ccccc2)cc1 | > 100 µM | > 100 µM | > 100 µM | > 100 µM | > 100 µM | > 100 µM | > 100 µM | > 100 µM |  | 
35 | NN1C(=O)C(CCO)S/C1=N/N=C1/SC(CCO)C(=O)N1N (stereo not drawn) | > 100 µM | > 100 µM | > 100 µM | > 100 µM | > 100 µM |  | > 100 µM |  |  | 
36 | NNC(=O)N/N=C1\C(=O)N(c2ccc(Cl)c(Cl)c2)C(=O)C(=O)C1c1nc2ccccc2s1 (stereo not drawn) | > 100 µM | > 100 µM | > 100 µM | > 100 µM |  | > 100 µM | > 100 µM |  |  | 
37 | O=c1ssc(Cl)c1Cl |  |  |  |  |  |  |  |  | > 10 µM | 
